{"source": "patent US20090291938A1", "about": "(TAKEDA PHARMACEUTICAL COMPANY LIMITED, priority 2007, published 2009)", "data": [{"test_system": "HT29 human colorectal adenocarcinoma cell line", "experiment": "cell proliferation assay (Cell Titer-Glo luminescent cell viability assay)", "assay_type": "cell-based", "conditions": "HT-29, cell proliferative assay, HT29 cells, 72 hr treatment, values given as ranges, read-out: pIC50 (converted)", "procedure": "The cell culture and proliferation assay may be carried out as follows: the HT29 human colorectal adenocarcinoma cell line (ATCC, USA) was maintained in Dulbecco's Modified Eagle's Medium (Invitrogen, USA) supplemented with 10% fetal bovine serum (JRH, USA). The cell proliferation assay was carried out with the Cell Titer-Glo luminescent cell viability assay (Promega, USA) according to the manufacture's instruction after the 72 hr treatment of the cells in the presence of the compounds. The cell viability was shown as a percentage of DMSO treated cells.", "units": {"IC50": "nM"}, "values": [{"compound": "CNC(=O)c1ccc(Nc2ncc3c(n2)N(C2CCCC2)CCC(=O)N3C)c(OC)c1", "note": "[Compound 10, 4-[(9-cyclopentyl-5-methyl-6-oxo-6,7,8,9-tetrahydro-5H-pyrimido[4,5-b][1,4]diazepin-2-yl)amino]-3-methoxy-N-methylbenzamide]", "IC50": "3.16 to 10"}, {"compound": "COc1cc(C(=O)NC2CCN(C)CC2)ccc1Nc1ncc2c(n1)N(C1CCCC1)CC1(CC1)C(=O)N2C", "note": "[Compound 33, 4-(9′-cyclopentyl-5′-methyl-6′-oxo-5′,6′,8′,9′-tetrahydrospiro[cyclopropane-1,7′-pyrimido[4,5-b][1,4]diazepine]-2′-ylamino)-3-methoxy-N-(1-methylpiperidin-4-yl)benzamide]", "IC50": "1 to 2.51"}, {"compound": "CC[C@H]1CN(C2CCCC2)c2nc(Nc3ccc(C(=O)NC4CCN(C)CC4)cc3OC)ncc2N(C)C1=O", "note": "[Compound 36, (S)-4-(9-Cyclopentyl-7-ethyl-5-methyl-6-oxo-6,7,8,9-tetrahydro-5H-pyrimido[4,5-b][1,4]diazepin-2-ylamino)-3-methoxy-N-(1-methyl-piperidin-4-yl)-benzamide]", "IC50": "3.16 to 10"}, {"compound": "COc1cc(C(=O)NC2CCN(S(C)(=O)=O)CC2)ccc1Nc1ncc2c(n1)N(C1CCCC1)CCC(=O)N2C", "note": "[Compound 37, 4-(9-cyclopentyl-5-methyl-6-oxo-6,7,8,9-tetrahydro-5H-pyrimido[4,5-b][1,4]diazepin-2-ylamino)-3-methoxy N-(1-(methylsulfonyl)piperidin-4-yl)benzamide]", "IC50": "3.16 to 10"}, {"compound": "COc1cc(C(=O)NCCCN2CCCC2=O)ccc1Nc1ncc2c(n1)N(C1CCCC1)CCC(=O)N2C", "note": "[Compound 38, 4-(9-cyclopentyl-5-methyl-6-oxo-6,7,8,9-tetrahydro-5H-pyrimido[4,5-b][1,4]diazepin-2-ylamino)-3-methoxy-N-(3-(2-oxopyrrolidin-1-yl)propyl)benzamide]", "IC50": "3.16 to 10"}, {"compound": "COc1cc(C(=O)NC2CCN(C(C)=O)CC2)ccc1Nc1ncc2c(n1)N(C1CCCC1)CCC(=O)N2C", "note": "[Compound 39, N-(1-acetylpiperidin-4-yl)-4-(9-cyclopentyl-5-methyl-6-oxo-6,7,8,9-tetrahydro-5H-pyrimido[4,5-b][1,4]diazepin-2-ylamino)-3-methoxybenzamide]", "IC50": "1 to 2.51"}, {"compound": "COc1cc(C(=O)N[C@H]2CCNC2)ccc1Nc1ncc2c(n1)N(C1CCCC1)CCC(=O)N2C", "note": "[Compound 40, (S)-4-(9-cyclopentyl-5-methyl-6-oxo-6,7,8,9-tetrahydro-5H-pyrimido[4,5-b][1,4]diazepin-2-ylamino)-3-methoxy-N-(pyrrolidin-3yl)benzamide]", "IC50": "> 10"}, {"compound": "COc1cc(C(=O)N[C@@H]2CCNC2)ccc1Nc1ncc2c(n1)N(C1CCCC1)CCC(=O)N2C", "note": "[Compound 41, (R)-4-(9-cyclopentyl-5-methyl-6-oxo-6,7,8,9-tetrahydro-5H-pyrimido[4,5-b][1,4]diazepin-2-ylamino)-3-methoxy-N-(pyrrolidin-3-yl)benzamide]", "IC50": "> 10"}, {"compound": "COc1cc(C(=O)NC2CCOCC2)ccc1Nc1ncc2c(n1)N(C1CCCC1)CCC(=O)N2C", "note": "[Compound 42, 4-(9-cyclopentyl-5-methyl-6-oxo-6,7,8,9-tetrahydro-5H-pyrimido[4,5-b][1,4]diazepin-2-ylamino)-3-methoxy-N-(tetrahydro-2H-pyran-4-yl)benzamide]", "IC50": "3.16 to 10"}, {"compound": "COc1cc(C(=O)NCCNC(C)=O)ccc1Nc1ncc2c(n1)N(C1CCCC1)CCC(=O)N2C", "note": "[Compound 43, N-(2-acetamidoethyl)-4-(9-cyclopentyl-5-methyl-6-oxo-6,7,8,9-tetrahydro-5H-pyrimido[4,5-b][1,4]diazepin-2-ylamino)-3-methoxybenzamide]", "IC50": "> 10"}, {"compound": "COc1cc(C(=O)NCCN2CCCC2=O)ccc1Nc1ncc2c(n1)N(C1CCCC1)CCC(=O)N2C", "note": "[Compound 46, 4-(9-cyclopentyl-5-methyl-6-oxo-6,7,8,9-tetrahydro-5H-pyrimido[4,5-b][1,4]diazepin-2-ylamino)-3-methoxy-N-(2-(2-oxopyrrolidin-1-yl)ethyl)benzamide]", "IC50": "3.16 to 10"}, {"compound": "COc1cc(C(=O)NC2CN(C)C2)ccc1Nc1ncc2c(n1)N(C1CCCC1)CCC(=O)N2C", "note": "[Compound 47, 4-(9-cyclopentyl-5-methyl-6-oxo-6,7,8,9-tetrahydro-5H-pyrimido[4,5-b][1,4]diazepin-2-ylamino)-3-methoxy-N-(1-methylazetidin-3-yl)benzamide]", "IC50": "3.16 to 10"}, {"compound": "COc1cc(C(=O)N[C@H]2CCC(=O)NC2)ccc1Nc1ncc2c(n1)N(C1CCCC1)CCC(=O)N2C", "note": "[Compound 48, (S)-4-(9-cyclopentyl-5-methyl-6-oxo-6,7,8,9-tetrahydro-5H-pyrimido[4,5-b][1,4]diazepin-2-ylamino)-3-methoxy-N-(6-oxopiperidin-3-yl)benzamide]", "IC50": "> 10"}, {"compound": "COc1cc(C(=O)N[C@@H]2CCCNC2)ccc1Nc1ncc2c(n1)N(C1CCCC1)CCC(=O)N2C", "note": "[Compound 49, (R)-4-(9-cyclopentyl-5-methyl-6-oxo-6,7,8,9-tetrahydro-5H-pyrimido[4,5-b][1,4]diazepin-2-ylamino)-3-methoxy-N-(piperidin-3-yl)benzamide]", "IC50": "> 10"}, {"compound": "COc1cc(C(=O)N[C@H]2CCCNC2)ccc1Nc1ncc2c(n1)N(C1CCCC1)CCC(=O)N2C", "note": "[Compound 50, (S)-4-(9-cyclopentyl-5-methyl-6-oxo-6,7,8,9-tetrahydro-5H-pyrimido[4,5-b][1,4]diazepin-2-ylamino)-3-methoxy-N-(piperidin-3-yl)benzamide]", "IC50": "> 10"}, {"compound": "COc1cc(C(=O)N[C@@H]2CCN(C)C2)ccc1Nc1ncc2c(n1)N(C1CCCC1)CCC(=O)N2C", "note": "[Compound 51, (R)-4-(9-cyclopentyl-5-methyl-6-oxo-6,7,8,9-tetrahydro-5H-pyrimido[4,5-b][1,4]diazepin-2-ylamino)-3-methoxy-N-(1-methylpyrrolidin-3-yl)benzamide]", "IC50": "> 10"}, {"compound": "COc1cc(C(=O)N[C@H]2CCN(C)C2)ccc1Nc1ncc2c(n1)N(C1CCCC1)CCC(=O)N2C", "note": "[Compound 52, (S)-4-(9-cyclopentyl-5-methyl-6-oxo-6,7,8,9-tetrahydro-5H-pyrimido[4,5-b][1,4]diazepin-2-ylamino)-3-methoxy-N-(1-methylpyrrolidin-3-yl)benzamide]", "IC50": "> 10"}, {"compound": "COc1cc(C(=O)N[C@@H]2CCCN(C)C2)ccc1Nc1ncc2c(n1)N(C1CCCC1)CCC(=O)N2C", "note": "[Compound 53, (R)-4-(9-cyclopentyl-5-methyl-6-oxo-6,7,8,9-tetrahydro-5H-pyrimido[4,5-b][1,4]diazepin-2-ylamino)-3-methoxy-N-(1-methylpiperidin-3-yl)benzamide]", "IC50": "> 10"}, {"compound": "COc1cc(C(=O)N[C@H]2CCCN(C)C2)ccc1Nc1ncc2c(n1)N(C1CCCC1)CCC(=O)N2C", "note": "[Compound 54, (S)-4-(9-cyclopentyl-5-methyl-6-oxo-6,7,8,9-tetrahydro-5H-pyrimido[4,5-b][1,4]diazepin-2-ylamino)-3-methoxy-N-(1-methylpiperidin-3-yl)benzamide]", "IC50": "3.16 to 10"}, {"compound": "COc1cc(C(=O)NCCN2CCNCC2)ccc1Nc1ncc2c(n1)N(C1CCCC1)CCC(=O)N2C", "note": "[Compound 55, 4-(9-cyclopentyl-5-methyl-6-oxo-6,7,8,9-tetrahydro-5H-pyrimido[4,5-b][1,4]diazepin-2-ylamino)-3-methoxy-N-(2-(piperazin-1-yl)ethyl)benzamide]", "IC50": "> 10"}, {"compound": "COc1cc(C(=O)NC2CCNCC2)ccc1Nc1ncc2c(n1)N(C1CCCC1)CCC(=O)N2C", "note": "[Compound 56, 4-(9-cyclopentyl-5-methyl-6-oxo-6,7,8,9-tetrahydro-5H-pyrimido[4,5-b][1,4]diazepin-2-ylamino)-3-methoxy-N-(piperidin-4-yl)benzamide]", "IC50": "> 10"}, {"compound": "COc1cc(C(=O)NCCN2CCCC2)ccc1Nc1ncc2c(n1)N(C1CCCC1)CCC(=O)N2C", "note": "[Compound 57, 4-(9-cyclopentyl-5-methyl-6-oxo-6,7,8,9-tetrahydro-5H-pyrimido[4,5-b][1,4]diazepin-2-ylamino)-3-methoxy-N-(2-(pyrrolidin-1-yl)ethyl)benzamide]", "IC50": "> 10"}, {"compound": "CNCCNC(=O)c1ccc(Nc2ncc3c(n2)N(C2CCCC2)CCC(=O)N3C)c(OC)c1", "note": "[Compound 59, 4-(9-cyclopentyl-5-methyl-6-oxo-6,7,8,9-tetrahydro-5H-pyrimido[4,5-b][1,4]diazepin-2-ylamino)-3-methoxy-N-(2-(methylamino)ethyl)benzamide]", "IC50": "> 10"}, {"compound": "COc1cc(C(=O)NCC2CCNCC2)ccc1Nc1ncc2c(n1)N(C1CCCC1)CCC(=O)N2C", "note": "[Compound 60, 4-(9-cyclopentyl-5-methyl-6-oxo-6,7,8,9-tetrahydro-5H-pyrimido[4,5-b][1,4]diazepin-2-ylamino)-3-methoxy-N-(piperidin-4-ylmethyl)benzamide]", "IC50": "> 10"}, {"compound": "COc1cc(C(=O)NC[C@@H]2CCCN2)ccc1Nc1ncc2c(n1)N(C1CCCC1)CCC(=O)N2C", "note": "[Compound 61, (S)-4-(9-cyclopentyl-5-methyl-6-oxo-6,7,8,9-tetrahydro-5H-pyrimido[4,5-b][1,4]diazepin-2-ylamino)-3-methoxy-N-(pyrrolidin-2-ylmethyl)benzamide]", "IC50": "> 10"}, {"compound": "COc1cc(C(=O)NC[C@H]2CCCN2)ccc1Nc1ncc2c(n1)N(C1CCCC1)CCC(=O)N2C", "note": "[Compound 62, (R)-4-(9-cyclopentyl-5-methyl-6-oxo-6,7,8,9-tetrahydro-5H-pyrimido[4,5-b][1,4]diazepin-2-ylamino)-3-methoxy-N-(pyrrolidin-2-ylmethyl)benzamide]", "IC50": "> 10"}, {"compound": "COc1cc(C(=O)NC[C@@H]2CCCNC2)ccc1Nc1ncc2c(n1)N(C1CCCC1)CCC(=O)N2C", "note": "[Compound 63, (R)-4-(9-cyclopentyl-5-methyl-6-oxo-6,7,8,9-tetrahydro-5H-pyrimido[4,5-b][1,4]diazepin-2-ylamino)-3-methoxy-N-(piperidin-3-ylmethyl)benzamide]", "IC50": "> 10"}]}]}
